Assay results from patent US10519152B2, “Compounds and their use in treating cancer” (AstraZeneca AB, priority 2017, dated 2019).

What follows are compounds tested against T1, recombinant human Estrogen Receptor alpha ligand binding domain, residues 307-554 (ER alpha-LBD (GST)) (Homo sapiens, UniProt P03372) (assay: ERα binding assay (LanthaScreen TR-FRET competition)). Conditions: TR-FRET competition with Fluormone ES2 tracer, 4 hours at room temperature; single experiment or average of two or more.
T1 construct: made in house
T1 sequence (P03372 307-554): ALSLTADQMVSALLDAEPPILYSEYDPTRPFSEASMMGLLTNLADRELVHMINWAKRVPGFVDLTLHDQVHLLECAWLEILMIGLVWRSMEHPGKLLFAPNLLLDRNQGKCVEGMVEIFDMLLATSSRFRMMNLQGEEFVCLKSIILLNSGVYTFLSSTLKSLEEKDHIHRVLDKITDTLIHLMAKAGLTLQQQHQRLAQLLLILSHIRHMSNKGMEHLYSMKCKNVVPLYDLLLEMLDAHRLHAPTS
Work on `Cc1ncsc1-c1ccc(CNC(=O)[C@@H]2C[C@@H](O)CN2C(=O)[C@@H](NC(=O)COCCNC(=O)/C=C/c2cc(F)c([C@@H]3c4[nH]c5ccccc5c4C[C@@H](C)N3CC(C)(C)F)c(F)c2)C(C)(C)C)cc1` [Example 62, (2S,4R)-1-((S)-2-(2-(2-((E)-3-(3,5-difluoro-4-((1R,3R)-2-(2-fluoro-2-methylpropyl)-3-methyl-2,3,4,9-tetrahydro-1H-pyrido[3,4-b]indol-1-yl)phenyl)acrylamido)ethoxy)acetamido)-3,3-dimethylbutanoyl)-4-hydroxy-N-(4-(4-methylthiazol-5-yl)benzyl)pyrrolidine-2-carboxamide, Trifluoroacetic Acid] yielded an IC50 of 0.5 nM.
Compound `Cc1ncsc1-c1ccc(CNC(=O)[C@@H]2C[C@@H](O)CN2C(=O)[C@@H](NC(=O)COCc2cccc(CCCOc3cc(F)c([C@@H]4c5[nH]c6ccccc6c5C[C@@H](C)N4CC(C)(C)F)c(F)c3)c2)C(C)(C)C)cc1` [Example 74, (2S,4R)-1-((S)-2-(2-((3-(3-(3,5-Difluoro-4-((1R,3R)-2-(2-fluoro-2-methylpropyl)-3-methyl-2,3,4,9-tetrahydro-1H-pyrido[3,4-b]indol-1-yl)phenoxy)propyl)benzyl)oxy)acetamido)-3,3-dimethylbutanoyl)-4-hydroxy-N-(4-(4-methylthiazol-5-yl)benzyl)pyrrolidine-2-carboxamide] has an IC50 of 0.8 nM.
`Cc1ncsc1-c1ccc(CNC(=O)[C@@H]2C[C@@H](O)CN2C(=O)[C@@H](NC(=O)COCCOCCOCCCNC(=O)c2cc(F)c([C@@H]3c4[nH]c5ccccc5c4C[C@@H](C)N3CC(C)(C)F)c(F)c2)C(C)(C)C)cc1` [Example 84, (2S,4R)-1-((S)-16-(tert-Butyl)-1-(3,5-difluoro-4-((1R,3R)-2-(2-fluoro-2-methylpropyl)-3-methyl-2,3,4,9-tetrahydro-1H-pyrido[3,4-b]indol-1-yl)phenyl)-1,14-dioxo-6,9,12-trioxa-2,15-diazaheptadecan-17-oyl)-4-hydroxy-N-(4-(4-methylthiazol-5-yl)benzyl)pyrrolidine-2-carboxamide] was tested, and the IC50 was 1.3 nM.
`Cc1ncsc1-c1ccc(CNC(=O)[C@@H]2C[C@@H](O)CN2C(=O)[C@@H](NC(=O)COCCOCCOCCOc2cc(F)c([C@@H]3c4[nH]c5ccccc5c4C[C@@H](C)N3CC(F)(F)CO)c(F)c2)C(C)(C)C)cc1` [Example 71, (2S,4R)-1-((S)-2-(tert-Butyl)-14-(4-((1R,3R)-2-(2,2-difluoro-3-hydroxypropyl)-3-methyl-2,3,4,9-tetrahydro-1H-pyrido[3,4-b]indol-1-yl)-3,5-difluorophenoxy)-4-oxo-6,9,12-trioxa-3-azatetradecanoyl)-4-hydroxy-N-(4-(4-methylthiazol-5-yl)benzyl)pyrrolidine-2-carboxamide] gave an IC50 of 1.3 nM.
For `Cc1ncsc1-c1ccc(CNC(=O)[C@@H]2C[C@@H](O)CN2C(=O)[C@@H](NC(=O)c2ccc(N3CCN(CCNC(=O)/C=C/c4cc(F)c([C@@H]5c6[nH]c7ccccc7c6C[C@@H](C)N5CC(C)(C)F)c(F)c4)CC3)cc2)C(C)(C)C)cc1` [Example 67, (2S,4R)-1-((S)-2-(4-(4-(2-((E)-3-(3,5-difluoro-4-((1R,3R)-2-(2-fluoro-2-methylpropyl)-3-methyl-2,3,4,9-tetrahydro-1H-pyrido[3,4-b]indol-1-yl)phenyl)acrylamido)ethyl)piperazin-1-yl)benzamido)-3,3-dimethylbutanoyl)-4-hydroxy-N-(4-(4-methylthiazol-5-yl)benzyl)pyrrolidine-2-carboxamide, Trifluoroacetic Acid], the IC50 was 1.1 nM.
`Cc1ncsc1-c1ccc(CNC(=O)[C@@H]2C[C@@H](O)CN2C(=O)[C@@H](NC(=O)COCCOCCOCCOCCOCC(=O)Nc2ccc([C@@H]3c4[nH]c5ccccc5c4C[C@@H](C)N3CC(C)(C)F)cc2)C(C)(C)C)cc1` [Example 56, N^1-(4-((1R,3R)-2-(2-fluoro-2-methylpropyl)-3-methyl-2,3,4,9-tetrahydro-1H-pyrido[3,4-b]indol-1-yl)phenyl)-N^17—((S)-1-((2S,4R)-4-hydroxy-2-((4-(4-methylthiazol-5-yl)benzyl)carbamoyl)pyrrolidin-1-yl)-3,3-dimethyl-1-oxobutan-2-yl)-3,6,9,12,15-pentaoxaheptadecanediamide, Trifluoroacetic Acid] gave an IC50 of 20 nM.
With `Cc1ncsc1-c1ccc(CNC(=O)[C@@H]2C[C@@H](O)CN2C(=O)[C@@H](NC(=O)COCCOCCOCCOc2cc(F)c([C@@H]3c4[nH]c5ccccc5c4C[C@@H](C)N3CC3(F)CC3)c(F)c2)C(C)(C)C)cc1` [Example 77, (2S,4R)-1-((S)-2-(tert-Butyl)-14-(3,5-difluoro-4-((1R,3R)-2-((1-fluorocyclopropyl)methyl)-3-methyl-2,3,4,9-tetrahydro-1H-pyrido[3,4-b]indol-1-yl)phenoxy)-4-oxo-6,9,12-trioxa-3-azatetradecanoyl)-4-hydroxy-N-(4-(4-methylthiazol-5-yl)benzyl)pyrrolidine-2-carboxamide] the IC50 was 2.6 nM.
With `Cc1ncsc1-c1ccc(CNC(=O)[C@@H]2C[C@@H](O)CN2C(=O)[C@@H](NC(=O)Cc2ccc(OCCOCCNC(=O)/C=C/c3cc(F)c([C@@H]4c5[nH]c6ccccc6c5C[C@@H](C)N4CC(C)(C)F)c(F)c3)cc2)C(C)(C)C)cc1` [Example 66, (2S,4R)-1-((S)-2-(2-(4-(2-(2-((E)-3-(3,5-difluoro-4-((1R,3R)-2-(2-fluoro-2-methylpropyl)-3-methyl-2,3,4,9-tetrahydro-1H-pyrido[3,4-b]indol-1-yl)phenyl)acrylamido)ethoxy)ethoxy)phenyl)acetamido)-3,3-dimethylbutanoyl)-4-hydroxy-N-(4-(4-methylthiazol-5-yl)benzyl)pyrrolidine-2-carboxamide, Trifluoroacetic Acid] the IC50 was 1.2 nM.
For `Cc1ncsc1-c1ccc([C@H](C)NC(=O)[C@@H]2C[C@@H](O)CN2C(=O)[C@@H](NC(=O)COCCOCCOCCOc2cc(F)c([C@@H]3c4[nH]c5ccccc5c4C[C@@H](C)N3CC(C)(C)F)c(F)c2)C(C)(C)C)cc1` [Example 3, (2S,4R)-1-((S)-2-(tert-Butyl)-14-(3,5-difluoro-4-((1R,3R)-2-(2-fluoro-2-methylpropyl)-3-methyl-2,3,4,9-tetrahydro-1H-pyrido[3,4-b]indol-1-yl)phenoxy)-4-oxo-6,9,12-trioxa-3-azatetradecanoyl)-4-hydroxy-N—((S)-1-(4-(4-methylthiazol-5-yl)phenyl)ethyl)pyrrolidine-2-carboxamide], the IC50 was 0.8 nM.
`Cc1ncsc1-c1ccc(CNC(=O)[C@@H]2C[C@@H](O)CN2C(=O)[C@@H](NC(=O)COCCOCCOCCNC(=O)/C=C/c2cc(F)c([C@@H]3c4[nH]c5ccccc5c4C[C@@H](C)N3CC(C)(C)F)c(F)c2)C(C)(C)C)cc1` [Example 63, (2S,4R)-1-((S,E)-2-(tert-butyl)-18-(3,5-difluoro-4-((1R,3R)-2-(2-fluoro-2-methylpropyl)-3-methyl-2,3,4,9-tetrahydro-1H-pyrido[3,4-b]indol-1-yl)phenyl)-4,16-dioxo-6,9,12-trioxa-3,15-diazaoctadec-17-enoyl)-4-hydroxy-N-(4-(4-methylthiazol-5-yl)benzyl)pyrrolidine-2-carboxamide, Trifluoroacetic Acid] gave an IC50 of 1 nM.
Compound `Cc1ncsc1-c1ccc(CNC(=O)[C@@H]2C[C@@H](O)CN2C(=O)[C@@H](NC(=O)COCc2ccc(COc3cc(F)c([C@@H]4c5[nH]c6ccccc6c5C[C@@H](C)N4CC(C)(C)F)c(F)c3)nc2)C(C)(C)C)cc1` [Example 85, (2S,4R)-1-((S)-2-(2-((6-((3,5-difluoro-4-((1R,3R)-2-(2-fluoro-2-methylpropyl)-3-methyl-2,3,4,9-tetrahydro-1H-pyrido[3,4-b]indol-1-yl)phenoxy)methyl)pyridin-3-yl)methoxy)acetamido)-3,3-dimethylbutanoyl)-4-hydroxy-N-(4-(4-methylthiazol-5-yl)benzyl)pyrrolidine-2-carboxamide] has an IC50 of 0.9 nM.
Compound `Cc1ncsc1-c1ccc(CNC(=O)[C@@H]2C[C@@H](O)CN2C(=O)[C@@H](NC(=O)COCCCCCCCOc2cc(F)c([C@@H]3c4[nH]c5ccccc5c4C[C@@H](C)N3CC(F)(F)CO)c(F)c2)C(C)(C)C)cc1` [Example 78, (2S,4R)-1-((S)-2-(2-((7-(4-((1R,3R)-2-(2,2-Difluoro-3-hydroxypropyl)-3-methyl-2,3,4,9-tetrahydro-1H-pyrido[3,4-b]indol-1-yl)-3,5-difluorophenoxy)heptyl)oxy)acetamido)-3,3-dimethylbutanoyl)-4-hydroxy-N-(4-(4-methylthiazol-5-yl)benzyl)pyrrolidine-2-carboxamide] has an IC50 of 0.5 nM.
`Cc1ncsc1-c1ccc(CNC(=O)[C@@H]2C[C@@H](O)CN2C(=O)[C@@H](NC(=O)COCc2ccc(COc3cc(F)c([C@@H]4c5[nH]c6ccccc6c5C[C@@H](C)N4CC(C)(C)F)c(F)c3)cn2)C(C)(C)C)cc1` [Example 86, (2S,4R)-1-((S)-2-(2-((5-((3,5-Difluoro-4-((1R,3R)-2-(2-fluoro-2-methylpropyl)-3-methyl-2,3,4,9-tetrahydro-1H-pyrido[3,4-b]indol-1-yl)phenoxy)methyl)pyridin-2-yl)methoxy)acetamido)-3,3-dimethylbutanoyl)-4-hydroxy-N-(4-(4-methylthiazol-5-yl)benzyl)pyrrolidine-2-carboxamide] was tested, and the IC50 was 0.7 nM.
Work on `Cc1ncsc1-c1ccc(CNC(=O)[C@@H]2C[C@@H](O)CN2C(=O)[C@@H](NC(=O)COCCCCCOc2cc(F)c([C@@H]3c4[nH]c5ccccc5c4C[C@@H](C)N3CC3(F)CC3)c(F)c2)C(C)(C)C)cc1` [Example 79, (2S,4R)-1-((S)-2-(2-((5-(3,5-difluoro-4-((1R,3R)-2-((1-fluorocyclopropyl)methyl)-3-methyl-2,3,4,9-tetrahydro-1H-pyrido[3,4-b]indol-1-yl)phenoxy)pentyl)oxy)acetamido)-3,3-dimethylbutanoyl)-4-hydroxy-N-(4-(4-methylthiazol-5-yl)benzyl)pyrrolidine-2-carboxamide] yielded an IC50 of 0.9 nM.
